In article PMC7845594, “Novel Immune Modulators Enhance Caenorhabditis elegans Resistance to Multiple Pathogens” (mSphere, 2021):

System: P. aeruginosa strain PA14
Experiment: MIC assay (bacterial growth, no worms)
Type: cell-based, Pseudomonas aeruginosa
Method: For the first round of characterization, 69 novel small molecules previously selected on the basis of their ability to improve C. elegans survival during exposure to P. aeruginosa in liquid ([14]) were tested for the ability to interfere with bacterial growth. MICs were determined for each compound by growing P. aeruginosa strain PA14 in static culture in 384-well plates with serial 2-fold dilutions of compounds. No worms were used in these assays. Next, effective rescue concentrations (EC; defined as the minimum concentration that results in statistically significant survival, compared to dimethyl sulfoxide [DMSO]) ([15], [18]) were determined for each compound using the standard P. aeruginosa liquid killing assay. Sterile glp-4(bn2) worms were used in all liquid-based assays to limit artifacts (i.e., unlaid eggs will hatch and cause matricide).
Plates were allowed to grow for 24 h at 37°C without shaking. Growth was scored visually on the basis of turbidity. At least three biological replicates were performed.

COC(=O)/C=C/C(=O)Nc1ccccc1 [LK32]
MIC (Pseudomonas aeruginosa, P. aeruginosa PA14, LB media, static culture, no worms, read-out: MIC): > 975 µM
MIC / EC (ratio of MIC to EC, P. aeruginosa PA14): > 30.5
